Assay results published in patent US7273867B2, “Phenyl derivatives” (Merck Patent GmbH, priority 2001, dated 2007).

Columns and labels:
factor VIIa = target: T1, factor VIIa (Homo sapiens, UniProt P08709); assay: Inhibition of factor VIIa; type: biochemical
T1 sequence (P08709 213-466 limits assumed): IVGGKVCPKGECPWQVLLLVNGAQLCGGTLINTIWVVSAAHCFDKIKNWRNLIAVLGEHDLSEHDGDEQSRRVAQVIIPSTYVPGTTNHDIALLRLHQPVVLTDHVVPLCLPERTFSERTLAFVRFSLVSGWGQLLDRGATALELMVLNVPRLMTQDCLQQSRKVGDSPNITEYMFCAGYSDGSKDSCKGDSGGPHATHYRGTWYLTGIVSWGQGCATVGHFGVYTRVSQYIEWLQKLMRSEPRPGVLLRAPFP
T1 sequence (P08709 61-212 limits assumed): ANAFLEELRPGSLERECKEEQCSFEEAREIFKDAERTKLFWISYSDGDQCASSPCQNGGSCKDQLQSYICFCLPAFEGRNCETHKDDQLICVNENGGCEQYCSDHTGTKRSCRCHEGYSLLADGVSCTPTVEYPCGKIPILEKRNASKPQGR
Text: Coagulation factor VIIa initiates the extrinsic part of the coagulation cascade after binding to tissue factor and contributes to the activation of factor X to give factor Xa. Inhibition of factor VIIa thus prevents the formation of factor Xa and thus subsequent thrombin formation. The inhibition of factor VIIa by the compounds according to the invention and the measurement of the anticoagulant and antithrombotic activity can be determined by conventional in-vitro or in-vivo methods. A conventional method for the measurement of the inhibition of factor VIIa is described, for example, by H. F. Ronning et al. in Thrombosis Research 1996, 84, 73-81.

factor Xa = factor Xa (Homo sapiens, UniProt P00742); assay: Inhibition of factor Xa; type: biochemical
Chain of factor Xa (P00742 235-488 limits assumed): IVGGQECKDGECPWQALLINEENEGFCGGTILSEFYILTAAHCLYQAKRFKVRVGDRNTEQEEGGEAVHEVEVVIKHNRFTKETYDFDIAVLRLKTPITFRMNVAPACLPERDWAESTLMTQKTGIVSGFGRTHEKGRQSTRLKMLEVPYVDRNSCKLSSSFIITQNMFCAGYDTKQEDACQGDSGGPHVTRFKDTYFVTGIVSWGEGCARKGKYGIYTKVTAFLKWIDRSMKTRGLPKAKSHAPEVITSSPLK
Chain of factor Xa (P00742 41-179 limits assumed): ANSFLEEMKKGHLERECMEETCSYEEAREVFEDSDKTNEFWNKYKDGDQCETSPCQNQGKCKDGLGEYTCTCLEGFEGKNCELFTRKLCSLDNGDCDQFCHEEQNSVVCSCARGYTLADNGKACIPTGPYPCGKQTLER
Text: The inhibition of factor Xa by the compounds according to the invention and the measurement of the anticoagulant and antithrombotic activity can be determined by conventional in-vitro or in-vivo methods. A suitable method is described, for example, by J. Hauptmann et al. in Thrombosis and Haemostasis 1990, 63, 220-223.
The inhibition of factor Xa can be measured, for example, by the method of T. Hara et al. in Thromb. Haemostas. 1994, 71, 314-319.

Row | IC50 (factor VIIa) [nM] | IC50 (factor Xa) [nM] | SMILES
1 | 83 | 130 | CCCC(Oc1cccc(C(=N)N)c1)C(=O)Nc1ccc(N2CCCC2=O)cc1 (stereo not shown) [2-(3-amidinophenoxy)-N-[4-(2-oxopyrrolidin-1-yl)phenyl]valeramide]
2 | 21 | 160 | CC(C)CC(Nc1cccc(C(=N)N)c1)C(=O)Nc1ccc(N(C)C)cc1 (stereo not shown) [2-(3-amidinophenylamino)-N-(4-dimethylaminophenyl)-4-methylvaleramide]
3 | 60 | 90 | N=C(N)c1cccc(OC(C(=O)Nc2ccc(N3CCOCC3)cc2)c2ccccc2)c1 (stereo not shown) [2-(3-amidinophenoxy)-N-(4-morpholin-4-ylphenyl)-2-phenylacetamide]
4 | 14 | 32 | N=C(N)c1cccc(OC(C(=O)Nc2ccc(N3CCCCC3=O)cc2)c2ccccc2)c1 (stereo not shown) [EMD 388547, 2-(3-amidinophenoxy)-N-[4-(2-oxopiperidin-1-yl)phenyl]-2-phenylacetamide]
5 | 33 | 70 | CCCC(Oc1cccc(C(=N)N)c1)C(=O)Nc1ccc(N2CCCCC2=O)cc1 (stereo not shown) [2-(3-amidinophenoxy)-N-[4-(2-oxopiperidin-1-yl)phenyl]valeramide]
6 | 39 | 65 | N=C(N)c1cccc(OC(C(=O)Nc2ccc(N3CCCC3=O)cc2)c2ccccc2)c1 (stereo not shown) [2-(3-amidinophenoxy)-N-[4-(2-oxopyrrolidin-1-yl)phenyl]-2-phenylacetamide]
7 | 22 | 34 | N=C(N)c1cccc(NC(C(=O)Nc2ccc(N3CCOCC3)cc2)c2ccccc2)c1 (stereo not shown) [2-(3-amidinophenylamino)-N-(4-morpholin-4-ylphenyl)-2-phenylacetamide]
8 | 490 | 300 | CCCC(Oc1cccc(C(=N)N)c1)C(=O)Nc1ccc(N2CCOCC2)cc1 (stereo not shown) [2-(3-amidinophenoxy)-N-(4-morpholin-4-ylphenyl)valeramide]
